Source: patent US8440637B2, “Combination treatment for the treatment of hepatitis C virus infection” (priority 2007, dated 2013)
Entries after “also recorded” stand apart in the source; their conditions may differ. Strand notation (5' to 3'): a small letter for the sugar, then the base; units joined by * are phosphorothioate-linked, units joined directly phosphodiester-linked; [ ] holds rarer units or linkages, { } end groups; capitals alone tell only the bases. l = locked nucleic acid (LNA); [5mC] = 5-methylcytosine; d = 2'-deoxy (DNA)

Key:
[1] = system: miR-122a; experiment: miR-122a levels in mouse liver by microRNA specific qPCR; assay type: in vivo
Experimental: Total RNA was extracted from liver samples as described above and analysed for miR-122a levels by microRNA specific QPCR.
In vivo study: Ten groups of animals (female C57/BL6; 3 mice per group) were treated in the following manner. Group 1 animals were injected with 0.2 ml saline by i.p. on day 0, day 2 and day 4. Groups 2-10 were dosed by i.p. with three different conc. (25 mg/kg, 5 mg/kg and 1 mg/kg) of either LNA antimiR-122a/SEQ ID NO: 61 (group 2-4), LNA antimir-122a/SEQ ID NO: 66 (group 5-7) or LNA antimir-122a/SEQ ID NO: 63 (group 8-10); the LNA antimir-122a sequences are given in the Table 1. All three LNA antimiR-122a oligonucleotides target the liver-specific miR-122a. The doses were calculated from the Day 0 body weights of each animal.
The animals were sacrificed 48 hours after last dose (Day 6), retro-orbital blood was collected in tubes containing EDTA and the plasma fraction harvested and stored frozen −80° C. for cholesterol analysis. At sacrifice livers were dissected and one portion was cut into 5 mm cubes and immersed in 5 volumes of ice-cold RNAlater. A second portion was snap frozen in liquid nitrogen and stored for cryo-sectioning.
Total RNA was extracted from liver samples using Trizol reagent according to the manufacturer's recommendations (Invitrogen, USA) and analysed for miR-122a levels by microRNA-specific QPCR according to the manufacturer's recommendations (Ambion, USA). […]
(§1) NMRI female mice were treated with indicated doses of LNA-antimiR (SEQ ID NO: 61) along with a mismatch control (m, SEQ ID NO: 65), saline and antagomir (SPC3595) for three consecutive days and sacrificed 24 hours after last dose (as in example 11 “old design”, n=5). miR-122 levels were analyzed by qPCR and normalized to the saline treated group.
C57BL/6J female mice were fed on high fat diet for 13 weeks before the initiation of the SEQ ID NO: 63 treatment. […] Both hypercholesterolemic and normal mice were treated i.p. twice weekly with 5 mg/kg SEQ ID NO: 63 and the corresponding mismatch control for a study period of 5½ weeks. Blood samples were collected weekly and total plasma cholesterol was measured during the entire course of the study. Upon sacrificing the mice, liver and blood samples were prepared for total RNA extraction, miRNA and mRNA quantification, assessment of the serum transaminase levels, and liver histology.
The miR-122 and let-7a microRNA levels were quantified with TaqMan microRNA Assay (Applied Biosystems) following the manufacturer's instructions. The RT reaction was diluted ten times in water and subsequently used for real time PCR amplification according to the manufacturer's instructions. A two-fold cDNA dilution series from liver total RNA of a saline-treated animal or mock transfected cells cDNA reaction (using 2.5 times more total RNA than in samples) served as standard to ensure a linear range (Ct versus relative copy number) of the amplification. Applied Biosystems 7500 or 7900 real-time PCR instrument was used for amplification.

[2] = system: miR-122a target genes (Bckdk, aldolase A, Nrdg3, CD320, Vldlr); experiment: miR-122a target mRNA levels in mouse liver by qPCR; assay type: in vivo; conditions: for Bckdk and AldoA mRNA levels compared to SEQ ID NO: 61 treated mice (in words) / upregulation of miR-122a target genes Bckdk and AldoA (in words): liver, 48 hours after last dose (Day 6)
Experimental: The saline control and different LNA-antimiR-122a treated animals were sacrificed 48 hours after last dose (Day 6), and total RNA was extracted from liver samples as using Trizol reagent according to the manufacturer's recommendations (Invitrogen, USA). The mRNA levels were assessed by real-time quantitative RT-PCR for two miR-122a target genes, Bckdk (branched chain ketoacid dehydrogenase kinase, ENSMUSG00000030802) and aldolase A (aldoA, ENSMUSG00000030695), respectively, as well as for GAPDH as control, using Taqman assays according to the manufacturer's instructions (Applied biosystems, USA).
NMRI mice were administered intravenously with SEQ ID NO: 61 SEQ ID NO: 61 using daily doses ranging from 2.5 to 25 mg/kg for three consecutive days. Animals were sacrificed 24 hours, 1, 2 or 3 weeks after last dose. Livers were harvested divided into pieces and submerged in RNAlater (Ambion) or snap-frozen. RNA was extracted with Trizol reagent according to the manufacturer's instructions (Invitrogen) from the RNAlater tissue, except that the precipitated RNA was washed in 80% ethanol and not vortexed. The RNA was used for mRNA TaqMan qPCR according to manufacturer (Applied biosystems) or northern blot (see below). The snap-frozen pieces were cryo-sectioned for in situ hybridizations.
Mice were treated with different SEQ ID NO: 61 SEQ ID NO: 61 doses for three consecutive days, as described above and sacrificed 24 hours after last dose. Total RNA extracted from liver was subjected to qPCR. […] Total liver RNA from 2 to 3 mice per group sacrificed 24 hours after last dose were subjected to qPCR for the indicated genes. Shown in FIG. 9 is mRNA levels relative to Saline group, n=2-3 (2.5-12.5 mg/kg/day: n=2, no SD). Shown is also the mismatch control (m, SEQ ID NO: 65).
Assayed genes: Nrdg3 Aldo A, Bckdk, CD320 with predicted miR-122 target site.
NMRI female mice were treated with 25 mg/kg/day SEQ ID NO: 61SEQ ID NO: 61 along with saline control for three consecutive days and sacrificed 1, 2 or 3 weeks after last dose, respectively. RNA was extracted from livers and mRNA levels of predicted miR-122a target mRNAs, selected by microarray data were investigated by qPCR. Three animals from each group were analysed.
mRNA levels are normalized to the individual GAPDH levels and to the mean of the Saline treated group at each individual time point. Included are also the values from the animals sacrificed 24 hours after last dose. Shown is mean and standard deviation, n=3 (24 h n=3)
The same liver RNA samples as in previous example were investigated for Vldlr induction.
as §1
mRNA quantification of selected genes was done using standard Tag Man assays (Applied Biosystems). The reverse transcription reaction was carried out with random decamers, 0.5 μg total RNA, and the M-MLV RT enzyme from Ambion according to a standard protocol. First strand cDNA was subsequently diluted 10 times in nuclease-free water before addition to the RT-PCR reaction mixture. A two-fold cDNA dilution series from liver total RNA of a saline-treated animal or mock transfected cells cDNA reaction (using 2.5 times more total RNA than in samples) served as standard to ensure a linear range (Ct versus relative copy number) of the amplification. Applied Biosystems 7500 or 7900 real-time PCR instrument was used for amplification.

[3] = i.p. on day 0, 2 and 4 at 25, 5 and 1 mg/kg, 48 hours after last dose

| Substance | efficacy in vivo in miR-122a silencing compared to SEQ ID NO: 61 (in words) [1, 3] | Bckdk and AldoA mRNA levels compared to SEQ ID NO: 61 treated mice (in words) [2] | upregulation of miR-122a target genes Bckdk and AldoA (in words) [2] | IC50, miR-122a silencing in liver ([1]; female C57/BL6, i.p. on day 0, 2 and 4 at 25, 5 and 1 mg/kg, 48 hours after last dose) [mg/kg] | miR-122 levels in liver after long-term treatment (in words) ([1]; hypercholesterolemic and normal mice, 5 mg/kg i.p. twice weekly for 5½ weeks) | miR-122a inhibition (in words) ([1]; 25 mg/kg i.v. on 3 successive days, Day 16) | miR-122a levels (in words) ([1]; 25 mg/kg i.v. on 3 successive days, Day 23) | miR-122a inhibition compared to saline control (in words) ([1]; 25 mg/kg i.v. on 3 successive days, sacrifice Day 9, 16 or 23) | IC50, miR-122a levels in liver ([1]; i.v. on 3 successive days, 2.5-25 mg/kg, 24 hour after last dose) [mg/kg] | reduction of miR-122 levels ([1]; one week after last LNA dose) [%] | Vldlr induction in liver (in words) ([2]; 25 mg/kg/day for three consecutive days, 1, 2 or 3 weeks after last dose) | mRNA levels of predicted miR-122a target mRNAs over time (in words) ([2]; NMRI female mice, 25 mg/kg/day for three consecutive days, 1, 2 or 3 weeks after last dose) | de-repression of miR-122 target mRNAs (AldoA, Bckdk, CD320, Nrdg3) (in words) ([2]; NMRI female mice, three consecutive days, 24 hours after last dose, compared to antagomir treated mice, listed as LNA-antimiR) | induction of miR-122a target genes (Nrdg3, Aldo A, Bckdk, CD320) (in words) ([2]; different doses for three consecutive days, 24 hours after last dose) |
| --- | --- | --- | --- | --- | --- | --- | --- | --- | --- | --- | --- | --- | --- | --- |
| 5′-AttGTcaCaCtCC-3′ (antisense lA*dT*dT*lG*lT*dC*dA*l[5mC]*dA*l[5mC]*dT*l[5mC]*l[5mC]) [SEQ ID NO: 66] | significantly improved efficacy in vivo | significantly higher | clear dose-dependent upregulation | – | – | – | – | – | – | – | – | – | – | – |
| 5′-CcAttGTcaCaCtCC-3′ (antisense CCATTGTCACACTCC; sugars from the 5' end ldlddllddldldll, backbone and methylation of C not given here) [SEQ ID NO: 63] | most potent | significantly higher | clear dose-dependent upregulation | ~1 | comparable profile in both hypercholesterolemic and normal mice | – | – | – | – | – | – | – | – | – |
| 5′-ccAttGtcAcaCtcCa-3′ (antisense CCATTGTCACACTCCA; sugars from the 5' end ddlddlddlddlddld, backbone and methylation of C not given here) [SEQ ID NO: 61] | – | – | clear dose-dependent upregulation | – | – | inhibition could still be detected | approached those of the saline group | two-fold inhibition | 3 to 5 | 50 | transient up-regulation | transient induction followed by a restoration of normal expression levels | dose-dependent de-repression; also recorded: consistently higher | clear dose-dependent induction |
